According to US20230073368A1, “THERAPY OF RAS-DEPENDENT CANCERS” (Turun Yliopisto, priority 2020, published 2023):

Tested on: PANC-1 cells
Assay: Proliferation assay of SHANK3 silenced PANC-1 cells treated with ERK and MEK inhibitors
Type: cell-based, human
Settings: dose-dependent, 7.8 nM-8 μM gradient
Procedure: Proliferation Assay of SHANK3 Silenced PANC-1 Cells Treated with ERK and MEK Inhibitors
Cells were seeded on a 96-well plate (2000-5000 cells/well) a day before transfection and silenced the next day when cell confluence was approximately 30%. Next day after silencing, medium was changed to full medium containing DMSO (control), Trametinib, Selumetinib (ADZ6244) or selective ERK1/2 inhibitor (SCH772984) in dose-dependent manner (concentration gradient: 0, 7.8 nM, 15.5 nM 31.3 nM 62.5 nM, 125 nM, 250 nM, 500 nM, 1 μM, 2 μM, 4 μM and 8 μM). Proliferation was measured using IncuCyte S3 as described above.

O=C(Nc1ccc2[nH]nc(-c3ccncc3)c2c1)[C@@H]1CCN(CC(=O)N2CCN(c3ccc(-c4ncccn4)cc3)CC2)C1 [SCH772984]
rescue of cell viability lost by SHANK3-silencing: abolished a loss of cell viability induced by SHANK3-silencing
